The results in this text go back to patent US20110268812A1, “Cosmetic or dermatological composition comprising the combination of honey and a peptide” (LVMH RECHERCHE, priority 2010, published 2011).

For this experiment, the system named is normal human fibroblasts (NHFs). Kind of experiment: In vitro healing test: recolonization of the damaged zone by fibroblasts (IBIDI culture inserts). The class given is cell-based. The conditions noted are these: 16 h treatment in DMEM alone, final concentrations: clover honey 100 μg/mL, Pal-VGVAPG solution 1%, change vs nontreated control (NT). Here is the method: This experiment is based on a model of biocompatible cell culture inserts allowing quantitative and perfectly reproducible measurement of the phenomena of healing in vitro.
The cells used in this study are normal human fibroblasts (NHFs).
The cells are seeded in 175 cm^2 flasks at a density of 1 million per flask in DMEM (Dulbecco's Modified Eagle's Medium) culture medium supplemented with 10% of foetal calf serum and 1.3 mM L-glutamine. Having reached confluence, the cells are trypsinized and re-seeded for the healing test.
Before seeding of the cells, inserts sold in the form of kits under the name Culture-Insert (ref. 80209) by the company IBIDI (Germany) are placed at the bottom of six wells of a plate. […]
The cells are maintained in culture for 16 h (optimum measurement time determined previously), in an incubator at 37° C. and in an atmosphere containing 5% CO2. […]
Images are immediately taken on a Nikon TE2000 video microscope in blue fluorescence (cell nuclei) and red fluorescence (actin filaments), at a rate of 2 photos per well at the damaged zone.
Image analysis is used to visualize and quantify the colonization by fibroblasts of the artificially “damaged” zone after removal of the insert. […]
The number of cells that have recolonized the damaged zone, per unit area (cm^2), is calculated. […]

Ends that are not written are not given here. * marks the point of attachment. Palmitoyl = CCCCCCCCCCCCCCCC(=O)*

With “palmitoyl-Val-Gly-Val-Ala-Pro-Gly (Palmitoyl-VGVAPG) [Pal-VGVAPG, sold in the form of an aqueous-glycolic solution under the trade name Biopeptide EL by the company Sederma]”, the “recolonization of the damaged zone (number of cells having recolonized per cm^2) compared with the nontreated control” value is listed as “+150%”.
